Patent publication US8932597B2 (priority 2008, dated 2015)

How the values were obtained:
HuM2e antibody 23K12 = assay type: binding, human
[1] = system: anti-M2 human monoclonal antibody Z3G1; assay type: binding

Substance: 299 (SLLTEVGCLCTCV; epitope peptide) [compound 299]
- Signal (peptides that bind to 23K21 and 8I10) (HuM2e antibody 23K12): 1963
- Signal (peptides that show specific binding to Z3G1) [1]: 2346

Substance: 556 (SLLTELETPIRNEWGCRCNDSSD; epitope peptide) [compound 556]
- Signal (peptides that bind to 23K21 and 8I10) (HuM2e antibody 23K12): 900
- Signal (peptides that show specific binding to Z3G1) [1]: 1380

Substance: 354 (SLLTEVGCSLLTEV; epitope peptide) [compound 354]
- Signal (peptides that bind to 23K21 and 8I10) (HuM2e antibody 23K12): 1555
- Signal (peptides that show specific binding to Z3G1) [1]: 2511

Substance: 679 (SLLTEVETPIRNEWGCECNDSSD; epitope peptide) [compound 679]
- Signal (peptides that bind to 23K21 and 8I10) (HuM2e antibody 23K12): 730
- Signal (peptides that show specific binding to Z3G1) [1]: 2148

Substance: 606 (SLLTEVETQIRNEWGCRCNDSSD; epitope peptide) [compound 606]
- Signal (peptides that bind to 23K21 and 8I10) (HuM2e antibody 23K12): 819
- Signal (peptides that show specific binding to Z3G1) [1]: 2189

Substance: 201 (CEVETPIRNEWGSRSNCSLLTEVETC; epitope peptide) [compound 201]
- Signal (peptides that bind to 23K21 and 8I10) (HuM2e antibody 23K12): 1007
- Signal (peptides that show specific binding to Z3G1) [1]: 2288

Substance: 448 (SLLTEVETPIRNEWGCRCNDSS; epitope peptide) [compound 448]
- Signal (peptides that bind to 23K21 and 8I10) (HuM2e antibody 23K12): 833
- Signal (peptides that bind to Z3G1) [1]: 2325

Substance: 602 (SLLTEVETEIRNEWGCRCNDSSD; epitope peptide) [compound 602]
- Signal (peptides that bind to 23K21 and 8I10) (HuM2e antibody 23K12): 828
- Signal (peptides that show specific binding to Z3G1) [1]: 2368

Substance: 692 (SLLTEVETPILNEWGCRCNDSSD; epitope peptide) [compound 692]
- Signal (peptides that bind to 23K21 and 8I10) (HuM2e antibody 23K12): 721
- Signal (peptides that show specific binding to Z3G1) [1]: 2363

Substance: 702 (SLLTEVETPIRNYWGCRCNDSSD; epitope peptide) [compound 702]
- Signal (peptides that bind to 23K21 and 8I10) (HuM2e antibody 23K12): 714
- Signal (peptides that show specific binding to Z3G1) [1]: 2311

Substance: 444 (SLLTEVETPIRNEWGCRC; epitope peptide) [compound 444]
- Signal (peptides that bind to 23K21 and 8I10) (HuM2e antibody 23K12): 898
- Signal (peptides that bind to Z3G1) [1]: 2478

Substance: 703 (SLLTEVETPIRNWWGCRCNDSSD; epitope peptide) [compound 703]
- Signal (peptides that bind to 23K21 and 8I10) (HuM2e antibody 23K12): 713
- Signal (peptides that show specific binding to Z3G1) [1]: 2293

Substance: 683 (SLLTEVETPIRNEWGCACNDSSD; epitope peptide) [compound 683]
- Signal (peptides that bind to 23K21 and 8I10) (HuM2e antibody 23K12): 729
- Signal (peptides that show specific binding to Z3G1) [1]: 2301

Substance: 718 (SLLTEVECPIRNEWGCRCNDSSD; epitope peptide) [compound 718]
- Signal (peptides that bind to 23K21 and 8I10) (HuM2e antibody 23K12): 700
- Signal (peptides that show specific binding to Z3G1) [1]: 1974

Substance: 371 (MSLCTEVGMSLLTEV; epitope peptide) [compound 371]
- Signal (peptides that bind to 23K21 and 8I10) (HuM2e antibody 23K12): 1468
- Signal (peptides that bind to Z3G1) [1]: 2691

Substance: 562 (SLLTEVETPIRWEWGCRCNDSSD; epitope peptide) [compound 562]
- Signal (peptides that bind to 23K21 and 8I10) (HuM2e antibody 23K12): 890
- Signal (peptides that show specific binding to Z3G1) [1]: 2302

Substance: 559 (SLLTEVETAIRNEWGCRCNDSSD; epitope peptide) [compound 559]
- Signal (peptides that bind to 23K21 and 8I10) (HuM2e antibody 23K12): 895
- Signal (peptides that show specific binding to Z3G1) [1]: 2415

Substance: 451 (CSLLTEVGMSLLTEC; epitope peptide) [compound 451]
- Signal (peptides that bind to 23K21 and 8I10) (HuM2e antibody 23K12): 1326
- Signal (peptides that bind to Z3G1) [1]: 2613

Substance: 524 (SLLTEVETPIDNEWGCRCNDSSD; epitope peptide) [compound 524]
- Signal (peptides that bind to 23K21 and 8I10) (HuM2e antibody 23K12): 1001
- Signal (peptides that show specific binding to Z3G1) [1]: 2337

Substance: 352 (SLQTEVETPIRNEWGCRCNDSSD; epitope peptide) [compound 352]
- Signal (peptides that bind to 23K21 and 8I10) (HuM2e antibody 23K12): 1561
- Signal (peptides that show specific binding to Z3G1) [1]: 2025

Substance: 426 (SLLTEVETPIRNEWGCRCNDSLD; epitope peptide) [compound 426]
- Signal (peptides that bind to 23K21 and 8I10) (HuM2e antibody 23K12): 779
- Signal (peptides that bind to Z3G1) [1]: 2400

Substance: 607 (SLLTEVESPIRNEWGCRCNDSSD; epitope peptide) [compound 607]
- Signal (peptides that bind to 23K21 and 8I10) (HuM2e antibody 23K12): 817
- Signal (peptides that show specific binding to Z3G1) [1]: 2156

Substance: 696 (SLLTEVETPIRNEHGCRCNDSSD; epitope peptide) [compound 696]
- Signal (peptides that bind to 23K21 and 8I10) (HuM2e antibody 23K12): 719
- Signal (peptides that show specific binding to Z3G1) [1]: 2398

Substance: 657 (SLLTEVDTPIRNEWGCRCNDSSD; epitope peptide) [compound 657]
- Signal (peptides that bind to 23K21 and 8I10) (HuM2e antibody 23K12): 751
- Signal (peptides that show specific binding to Z3G1) [1]: 2095

Substance: 680 (SLLTEVETPIVNEWGCRCNDSSD; epitope peptide) [compound 680]
- Signal (peptides that bind to 23K21 and 8I10) (HuM2e antibody 23K12): 729
- Signal (peptides that show specific binding to Z3G1) [1]: 2366

Substance: 406 (SLLTEVETPIRNEWGCRCNDFSD; epitope peptide) [compound 406]
- Signal (peptides that bind to 23K21 and 8I10) (HuM2e antibody 23K12): 788
- Signal (peptides that bind to Z3G1) [1]: 2395

Substance: 473 (SLSTEVETPIRNEWGCRCNDSSD; epitope peptide) [compound 473]
- Signal (peptides that bind to 23K21 and 8I10) (HuM2e antibody 23K12): 1217
- Signal (peptides that show specific binding to Z3G1) [1]: 2052

Substance: 250 (CSLLTEVETCTEVETPIRNEWGSRSC; epitope peptide) [compound 250]
- Signal (peptides that bind to 23K21 and 8I10) (HuM2e antibody 23K12): 786
- Signal (peptides that show specific binding to Z3G1) [1]: 2474

Substance: 127 (CSLLTEVETCSLLTEVETC; epitope peptide) [compound 127]
- Signal (peptides that bind to 23K21 and 8I10) (HuM2e antibody 23K12): 1647
- Signal (peptides that show specific binding to Z3G1) [1]: 2555

Substance: 488 (SLLTEVETPIHNEWGCRCNDSSD; epitope peptide) [compound 488]
- Signal (peptides that bind to 23K21 and 8I10) (HuM2e antibody 23K12): 1112
- Signal (peptides that show specific binding to Z3G1) [1]: 2121

Substance: 480 (SLLTECGCLCTCV; epitope peptide) [compound 480]
- Signal (peptides that bind to 23K21 and 8I10) (HuM2e antibody 23K12): 1193

Substance: 378 (SLLTECGSLLTEC; epitope peptide) [compound 378]
- Signal (peptides that bind to 23K21 and 8I10) (HuM2e antibody 23K12): 1426

Substance: 466 (SCLTEVGCSLLTEV; epitope peptide) [compound 466]
- Signal (peptides that bind to 23K21 and 8I10) (HuM2e antibody 23K12): 1250

Substance: 514 (SLLTEGETPIRNEWGCRCNDSSD; epitope peptide) [compound 514]
- Signal (peptides that bind to 23K21 and 8I10) (HuM2e antibody 23K12): 1029

Substance: 539 (SLLTEYETPIRNEWGCRCNDSSD; epitope peptide) [compound 539]
- Signal (peptides that bind to 23K21 and 8I10) (HuM2e antibody 23K12): 950

Substance: 458 (CSLLTECGSCLTEV; epitope peptide) [compound 458]
- Signal (peptides that bind to 23K21 and 8I10) (HuM2e antibody 23K12): 1278

Substance: 348 (SLLTECGCSLLTEV; epitope peptide) [compound 348]
- Signal (peptides that bind to 23K21 and 8I10) (HuM2e antibody 23K12): 1597

Substance: 574 (CLLTEVGSLLTEC; epitope peptide) [compound 574]
- Signal (peptides that bind to 23K21 and 8I10) (HuM2e antibody 23K12): 866

Substance: 374 (SLLTECGCSLLTEC; epitope peptide) [compound 374]
- Signal (peptides that bind to 23K21 and 8I10) (HuM2e antibody 23K12): 1451

Substance: 295 (MSLCTEVGMSCLTEV; epitope peptide) [compound 295]
- Signal (peptides that bind to 23K21 and 8I10) (HuM2e antibody 23K12): 2026

Substance: 463 (CSLLTECGSLLTCV; epitope peptide) [compound 463]
- Signal (peptides that bind to 23K21 and 8I10) (HuM2e antibody 23K12): 1258

Substance: 489 (MSLLTECGMCLLTEV; epitope peptide) [compound 489]
- Signal (peptides that bind to 23K21 and 8I10) (HuM2e antibody 23K12): 1111

Substance: 518 (SYLTEVETPIRNEWGCRCNDSSD; epitope peptide) [compound 518]
- Signal (peptides that bind to 23K21 and 8I10) (HuM2e antibody 23K12): 1019

Substance: 355 (SCLCECGCSLLTEV; epitope peptide) [compound 355]
- Signal (peptides that bind to 23K21 and 8I10) (HuM2e antibody 23K12): 1555

Substance: 305 (CSCLCEVGMSLLTEC; epitope peptide) [compound 305]
- Signal (peptides that bind to 23K21 and 8I10) (HuM2e antibody 23K12): 1925
